Patent US12691145B2, “Plasma-treated hydrogel compositions and uses thereof” (UNIVERSITAT POLITÉCNICA DE CATALUNYA, priority 2020, dated 2026)

Assay: Detection of RONS in plasma-treated polymer solutions (strips, AR/HRP reagent, Griess reagent)
Format: physicochemical
Details: 200 μL
Excerpt: In the examples presented here, two kinds of atmospheric plasma jet were used: a commercially available cold atmospheric plasma jet kINPen IND (NEOPLAS Tools, Germany), operating with argon and an atmospheric pressure plasma jet (APPJ) using He as plasma gas in a jet design based on a single electrode. Gas flow was regulated between 1 and 2.5 L/min for kINPen and between 1 and 5 L/min for APPJ by using Ar and He Bronkhorst Mass View flow controllers (BRONKHORST, Netherlands), respectively. All plasma treatments of polymeric solutions for RONS quantification were performed on 200 μL of the polymeric solution in 96-well plates, with a distance between the nozzle and the sample surface between 10 and 20 mm. These plasma treatments were done with ungrounded samples. Both grounded and ungrounded samples can be used to obtain the compositions of the present invention, since the skilled person can set the plasma treatment conditions to obtain the desired RONS concentrations.
Determination of NO2^− concentration in plasma-treated polymer solutions was performed using Griess reagent. The Griess reagent used was obtained by dissolving 1% wt/v of sulphanilamide, 0.1% wt/v of N-(1-naphthyl)ethylenediamine dihydrochloride (NEED) and 5% w/v of phosphoric acid in de-ionized water. 200 μL of Griess reagent were added on 200 μL of sample in 96 well-plates. The plates were incubated for 10 min at room temperature protected from the light. The absorbance was measured at λabs=540 nm using a Synergy HTX Hybrid Multi Mode Microplate Reader (BioTek Instruments, Inc., USA). The [NO2^−] in each sample was determined from the absorbance values by using a calibration curve made from NaNO2 dilutions in the corresponding polymer solutions.
The concentration of hydrogen peroxide was determined by reaction of H2O2 with Amplex Red in presence of HRP enzyme that leads to the creation of resorufin, a fluorescent product. Amplex Red/HRP reagent consists in 100 μM of Amplex Red and 0.25 U/mL HRP in DI water. Since the higher concentration of H2O2 able to be processed properly by this reagent is around 10 μM of H2O2, plasma-treated polymer solutions were diluted 200 times previously to the addition of the reagent. In this case, for hydrogen peroxide detection, 50 μL of the Amplex Red/HRP reagent was added to 200 μL of the 200×-diluted polymer solution sample in a 96-well plate and incubated for 30 min at 37° C. Subsequent fluorescence measurements were performed by means of a Synergy HTX Hybrid Multi Mode Microplate Reader (BioTek Instruments, Inc., USA), with fluorescence filters centred at λex=560/20 nm and λem=590/20 nm as excitation and emission wavelengths, respectively. Concentrations of H2O2 in polymer solution generated by plasma treatment were obtained from the fluorescence values using a calibration curve made from 30% hydrogen peroxide solution in the corresponding polymer solutions.
For certain polymer solutions, interferences may be found between the solution and the reactants, invalidating the measure. In such cases, another method was used to determine the concentration of H2O2, […] in the polymer solutions after plasma treatment: QUANTOFIX® test strips, which were analyzed by means of a reflexion photometer (QUANTOFIX® Relax, of Macherey Nagel). The strips consist of plastic strips to which test paper has been sealed. Nitrite strips are also based in Griess reagent. Peroxide strips also use a redox reaction. The range of detection of the test strips used for H2O2, NO3^− and NO2^− were 1-100 mg/L, 10-500 mg/L and 1-80 mg/L, respectively. The plasma-treated polymer solutions were diluted, if necessary, to be within the measuring range.

With Water the H2O2 (APPJ, treat. time 180 s) was 9.2 mg/L, the “NO2^−” value (APPJ, treat. time 180 s) was 1.7 mg/L and the H2O2 (APPJ, treat. time 300 s) was 16.4 mg/L. For the same substance, the “NO2^−” value (APPJ, treat. time 300 s) was 2.7 mg/L, the H2O2 (kINPen, treat. time 180 s) was 10.3 mg/L and the “NO2^−” value (kINPen, treat. time 180 s) was 2.6 mg/L. For the same substance, the H2O2 (kINPen, treat. time 300 s) was 29.3 mg/L and the “NO2^−” value (kINPen, treat. time 300 s) was 2.7 mg/L.
